From patent publication US7323541B2, “Polypeptide DNA thereof and use of the same” (Takeda Pharmaceutical Company Limited, priority 2001, dated 2008)
Where no end group is shown, it is not given here.

Assays:
[1] = target: T1, membrane fraction of TGR23-2 expressing CHO cells (Homo sapiens, UniProt Q6W5P4, N107I/Q344R); test: GTPγS binding activity in membrane fraction; type: biochemical
T1 construct: the clones having the cDNA of TGR23-2, which is contained in pTB2174, were selected; expressed in transfected cells; host or cells: hamster CHO/dhfr- cells, vector pAKKO-111H (pAKKO-TGR23-2)
T1 sequence (Q6W5P4 1-371 N107I/Q344R): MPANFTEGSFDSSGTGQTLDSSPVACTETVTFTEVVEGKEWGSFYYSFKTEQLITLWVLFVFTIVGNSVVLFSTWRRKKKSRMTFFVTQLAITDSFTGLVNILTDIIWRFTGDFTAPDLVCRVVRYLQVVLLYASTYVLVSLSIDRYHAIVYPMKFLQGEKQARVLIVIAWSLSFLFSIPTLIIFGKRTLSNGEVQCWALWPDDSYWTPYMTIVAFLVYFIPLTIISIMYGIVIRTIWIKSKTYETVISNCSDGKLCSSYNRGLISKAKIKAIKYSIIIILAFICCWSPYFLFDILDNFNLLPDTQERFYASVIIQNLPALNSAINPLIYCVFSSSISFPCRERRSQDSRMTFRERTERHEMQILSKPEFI
Experimental: Enhancing activity of binding of [^35S]-Guanosine 5′-(γ-thio) triphosphate in the membrane fraction of TGR23-2 expressing CHO cells was measured by the following method. Firstly, it is described about preparation of membrane fraction. Twenty (20) ml of homogenation buffer (10 mM HEPES (pH7.3), 5 mM EDTA, 0.52 mM PMSF, 10 μg/ml pepstatin, 8 μg/ml E64, 20 μg/ml leupeptin) was added to 8×10^7 of TGR23-2 expressing CHO cells, and the cells were disrupted using Polytron (12,000 rpm, 30 seconds×3 times). The cell-disrupted fluids were centrifuged (1,000 g for 15 minutes) to get supernatant. Subsequently the supernatant was ultracentrifuged (Beckman type 30 rotor, 30,000 rpm, one hour), and the precipitate obtained was collected as a membrane fraction of TGR23-2 expressing CHO cells. The GTPγS binding activity was assayed as follows. The membrane fraction of TGR23-2 expressing CHO cells was diluted with membrane dilution buffer (50 mM Tris-HCl buffer (pH7.4), 5 mM MgCl2, 150 mM NaCl, 0.03% NaN3, 0.1% BSA, 1 μM GDP) to get cell membrane fraction solution for assay at the protein concentration of […]. Two (2) μl of 50 nM [^35S]-guanosine 5′-(γ-thio) triphosphate (NEN) and sample were added to 200 μl of cell membrane fraction solution for assay, and the mixture was incubated at 25° C. for one (1) hour. The mixture was filtered, and the filter was washed twice with 1.5 ml of washing buffer (50 mM Tris-HCl buffer (pH7.4), 5 mM MgCl2, 1 mM EDTA, 0.03% NaN3, 0.1% BSA). Then the radioactivity on the filter was measured by liquid scintillation counter. Human TGR23-2 ligand (1-20) prepared by the method described in Example 17, rat TGR23-2 ligand (1-18) prepared by the method described in Example 19 and mouse TGR23-2 ligand (1-20) prepared by the method described in Example 20 were administered to TGR23-2 expressing CHO cells at a variety of concentrations according to the method described above, and the GTPγS binding activity was determined.

[2] = target: T2, rat TGR23-1 expressing CHO cells (Rattus norvegicus, UniProt P0C0L6, DEL160-160); test: Intracellular Ca ion concentration increasing activity using FLIPR; type: cell-based
T2 construct: The rat TGR23-1 expressing vector was constructed by digestion of plasmid pCR2.1-rTGR23-1 with Sal I and Spe I; expressed in transfected cells; host or cells: CHO dhfr- cells, pAKKO-rTGR23-1, clone No. 34
T2 sequence (P0C0L6 with tags, fused parts or gaps DEL160-160): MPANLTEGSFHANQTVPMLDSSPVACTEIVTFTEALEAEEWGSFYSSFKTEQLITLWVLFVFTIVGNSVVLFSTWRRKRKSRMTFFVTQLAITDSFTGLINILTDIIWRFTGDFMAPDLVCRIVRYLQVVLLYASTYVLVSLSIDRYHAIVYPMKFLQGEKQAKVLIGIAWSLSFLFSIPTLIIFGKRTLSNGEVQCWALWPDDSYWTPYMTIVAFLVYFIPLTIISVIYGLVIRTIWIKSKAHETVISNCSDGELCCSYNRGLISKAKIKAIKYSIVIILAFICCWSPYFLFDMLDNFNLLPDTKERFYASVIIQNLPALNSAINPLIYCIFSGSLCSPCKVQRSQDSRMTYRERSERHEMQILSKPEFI
Experimental: An enhancing activity of intracellular Ca^2+ release was assayed using FLIPR (Molecular Devices, Inc.). The CHO/TGR23-2 cells prepared in Example 1 and selected in Example 2 were plated on 96-well plate at 3×10^4 cells/well and cultured for 24 hours. A loading buffer was prepared by adding 1 vial of Fluo 3-AM to 10 ml of Hanks' solution (pH7.4) containing 2.5 mM Probenecid and 20 mM HEPES (hereafter, Hanks' solution (pH7.4) containing 2.5 mM Probenecid and 20 mM HEPES may be referred to as a washing buffer). The culture medium was discarded from the culture plate and 100 μl/well of the loading buffer were added to the cells. Then, the cells were incubated for 60 minutes in the incubator. After the loading buffer was removed from the culture plate and the cells were washed with the washing buffer, the plate was put in place of FLIPR. A sample was prepared by adding a sample buffer, which 2 mg/ml BSA and 1 mg/ml CHAPS were added to the washing buffer, to lyophilized product, stirring and treating by ultrasonication for 30 minutes, and transferred to 96-well sample plate. This sample plate was also put in place for assay. The enhancing activity of intracellular Ca^2+ release was measured as an increase of fluorescent intensity, which is raised by addition of the sample.
The rat TGR23-2 ligand (1-18) having various concentrations was administered in accordance with the method described in Example 5, to the CHO cells, in which rat TGR23-1 and rat TGR23-5 are expressed. Subsequently, the intracellular Ca ion concentration increasing activity was measured using FLIPR.

Row | GTPγS binding activity [1] | EC50 ([2]; rat TGR23-1 expressing cells, calculated from graph FIG. 27) | Sequence | intracellular Ca ion concentration increasing activity ([2]; rat TGR23-1 expressing CHO cells)
1 | enhance the GTPγS binding activity | 0.19 nM | SFRNGVGSGVKKTSFRRA [rat TGR23-2 ligand (1-18), Ser-Phe-Arg-Asn-Gly-Val-Gly-Ser-Gly-Val-Lys-Lys-Thr-Ser-Phe-Arg-Arg-Ala] | the intracellular Ca ion level increased depending on the concentration of this ligand
2 | enhance the GTPγS binding activity | – | SFRNGVGTGMKKTSFQRAKS [human TGR23-2 ligand (1-20)] | –
